pEC50: −log10 of the molar value. Structures can show the parent of a compound that is named as a salt. Where two headings read alike, the source gives them in different places.
Legend:
primary human T-cells [1] = test system: primary human T-cells
primary human T-cells [2] = assay: Proliferation assay after 5 days (CellTiter-Glo, CD3 stimulation; PBS counter screen); format: cell-based; details: CD3 stimulation; for Emax: read-out: Emax proliferation (% activation); for pEC50: primary human T-cells, CellTiter-Glo after 5 days, EC50 of fitted sigmoidal curve, read-out: Tcell Proliferation CD3 EC50
In short: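 Proliferation is measured 5 days post-treatment as ATP-dependent luminescence. Flags mark compounds that activated unstimulated cells or harmed viability.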

[3] = Homo sapiens, T-cell, 120 h, 5 days, normalized to reference compound A1 as stimulator control = 100%, DMSO neutral control

Compound	pEC50 (primary human T-cells [1])	Emax (primary human T-cells [2]; [3]) [%]	pEC50 (primary human T-cells [2]; Homo sapiens, T-cell, 120 h)	Emax proliferation (% activation) (primary human T-cells [2]; 5 days, normalized to reference compound A1 as stimulator control = 100%, DMSO neutral control)	pEC50 (primary human T-cells [2])
C#CCC(C)(C)c1nnc(-c2cc3c(cc2F)S(=O)(=O)C[C@H](N)C(=O)N3Cc2ccc(OC(F)(F)F)cc2)o1 [Example 450, (3R)-3-amino-7-[5-(1,1-dimethylbut-3-ynyl)-1,3,4-oxadiazol-2-yl]-8-fluoro-1,1-dioxo-5-[[4-(trifluoromethoxy)phenyl]methyl]-2,3-dihydro-1λ^6,5-benzothiazepin-4-one]	7.14	114	7.15		
CC(C)(C)c1nnc(-c2cc3c(cc2F)[S+]([O-])C[C@H](N)C(=O)N3Cc2ccc(OC(F)(F)F)cc2)o1 (stereo partly drawn) [Example 453]	6.75			136	6.35
CCN1CCCC(Nc2nnc(-c3cc4c(cc3F)S(=O)(=O)C[C@H](N)C(=O)N4Cc3ccc(Cl)cc3)o2)C1 (stereo partly drawn) [Example 457, (3R)-3-amino-5-[(4-chlorophenyl)methyl]-7-[5-[(1-ethyl-3-piperidyl)amino]-1,3,4-oxadiazol-2-yl]-8-fluoro-1,1-dioxo-2,3-dihydro-1λ^6,5-benzothiazepin-4-one]	5.31	50	5.94		
N[C@H]1CS(=O)(=O)c2cc(F)c(-c3nnc(NC4CCN(C5CC5)CC4)o3)cc2N(Cc2ccc(Cl)cc2)C1=O [Example 460, (3R)-3-amino-5-[(4-chlorophenyl)methyl]-7-[5-[(1-cyclopropyl-4-piperidyl)amino]-1,3,4-oxadiazol-2-yl]-8-fluoro-1,1-dioxo-2,3-dihydro-1λ^6,5-benzothiazepin-4-one]	6.29	55	5.24		
CN(C)c1nnc(-c2cc3c(cc2F)S(=O)(=O)C[C@H](N)C(=O)N3Cc2ccc(Cl)cc2)o1 [Example 465, (3R)-3-amino-5-[(4-chlorophenyl)methyl]-7-[5-(dimethylamino)-1,3,4-oxadiazol-2-yl]-8-fluoro-1,1-dioxo-2,3-dihydro-1λ^6,5-benzothiazepin-4-one]	5.93	100	6.77		
N[C@H]1CS(=O)(=O)c2cc(F)c(-c3nnc(N4C[C@H]5C[C@@H](C4)C5(F)F)o3)cc2N(Cc2ccc(Cl)cc2)C1=O [Example 469, (3R)-3-amino-5-[(4-chlorophenyl)methyl]-8-fluoro-1,1-dioxo-7-[5-[(1R,5S)-6,6-difluoro-3-azabicyclo[3.1.1]heptan-3-yl]-1,3,4-oxadiazol-2-yl]-2,3-dihydro-1λ^6,5-benzothiazepin-4-one]	5.59	105	6.77		
CN1CCN(c2nnc(-c3cc4c(cc3F)S(=O)(=O)C[C@H](N)C(=O)N4Cc3ccc(Cl)cc3)o2)CC1 [Example 470, (3R)-3-amino-5-[(4-chlorophenyl)methyl]-8-fluoro-7-[5-(4-methylpiperazin-1-yl)-1,3,4-oxadiazol-2-yl]-1,1-dioxo-2,3-dihydro-1λ^6,5-benzothiazepin-4-one]	6.26	101	5.85		
CC(=O)N1CCN(c2nnc(-c3cc4c(cc3F)S(=O)(=O)C[C@H](N)C(=O)N4Cc3ccc(Cl)cc3)o2)CC1 [Example 471, (3R)-7-[5-(4-acetylpiperazin-1-yl)-1,3,4-oxadiazol-2-yl]-3-amino-5-[(4-chlorophenyl)methyl]-8-fluoro-1,1-dioxo-2,3-dihydro-1λ^6.5-benzothiazepin-4-one]	< 5.00	65	5.10		
CC1(C)CN(c2nnc(-c3cc4c(cc3F)S(=O)(=O)C[C@H](N)C(=O)N4Cc3ccc(Cl)cc3)o2)CCO1 [Example 473, (3R)-3-amino-5-[(4-chlorophenyl)methyl]-7-[5-(2,2-dimethylmorpholin-4-yl)-1,3,4-oxadiazol-2-yl]-8-fluoro-1,1-dioxo-2,3-dihydro-1λ^6,5-benzothiazepin-4-one]	5.58	126	6.39		
N[C@H]1CS(=O)(=O)c2cc(F)c(-c3nnc(NC4CC4)o3)cc2N(Cc2ccc(Cl)cc2)C1=O [Example 481, (3R)-3-amino-5-[(4-chlorophenyl)methyl]-7-[5-(cyclopropylamino)-1,3,4-oxadiazol-2-yl]-8-fluoro-1,1-dioxo-2,3-dihydro-1λ^6,5-benzothiazepin-4-one]	5.73	89	5.52		
N[C@H]1CS(=O)(=O)c2cc(F)c(-c3nnc(NC4(CCO)CCCCC4)o3)cc2N(Cc2ccc(Cl)cc2)C1=O [Example 483, (3R)-3-amino-5-[(4-chlorophenyl)methyl]-8-fluoro-7-[5-[[l-(2-hydroxyethyl)cyclohexyl]amino]-1,3,4-oxadiazol-2-yl]-1,1-dioxo-2,3-dihydro-1λ^6,5-benzothiazepin-4-one]	5.58	79	5.81		
CC(O)(CNc1nnc(-c2cc3c(cc2F)S(=O)(=O)C[C@H](N)C(=O)N3Cc2ccc(Cl)cc2)o1)C(F)(F)F (stereo partly drawn) [Example 484]	5.72	51	5.97		

Now from value to molecule, other results behind:

pEC50 (primary human T-cells [1])	Compound	Emax (primary human T-cells [2]; [3]) [%]	pEC50 (primary human T-cells [2]; Homo sapiens, T-cell, 120 h)	Emax proliferation (% activation) (primary human T-cells [2]; 5 days, normalized to reference compound A1 as stimulator control = 100%, DMSO neutral control)	pEC50 (primary human T-cells [2])
6.32	NC1CN(c2nnc(-c3cc4c(cc3F)S(=O)(=O)C[C@H](N)C(=O)N4Cc3ccc(Cl)cc3)o2)CCC1(F)F (stereo partly drawn) [Example 467, (3R)-3-amino-7-[5-(3-amino-4,4-difluoro-1-piperidyl)-1,3,4-oxadiazol-2-yl]-5-[(4-chlorophenyl)methyl]-8-fluoro-1,1-dioxo-2,3-dihydro-1λ^6,5-benzothiazepin-4-one]	102	6.06		
5.42	CC1(C#N)CCN(c2nnc(-c3cc4c(cc3F)S(=O)(=O)C[C@H](N)C(=O)N4Cc3ccc(Cl)cc3)o2)CC1 [Example 468, 4-methyl-1-[5-[(3R)-3-amino-5-[(4-chlorophenyl)methyl]-8-fluoro-1,1,4-trioxo-2,3-dihydro-1λ^6,5-benzothiazepin-7-yl]-1,3,4-oxadiazol-2-yl]piperidine-4-carbonitrile]	127	5.57		
6.96	N[C@H]1CS(=O)(=O)c2cc(F)c(-c3nnc(N4CCOC5(CC5)C4)o3)cc2N(Cc2ccc(Cl)cc2)C1=O [Example 472, (3R)-3-amino-5-[(4-chlorophenyl)methyl]-8-fluoro-7-[5-(4-oxa-7-azaspiro[2.5]octan-7-yl)-1,3,4-oxadiazol-2-yl]-1,1-dioxo-2,3-dihydro-1λ^6,5-benzothiazepin-4-one]	115	6.93		
6.60	N[C@H]1CS(=O)(=O)c2cc(F)c(-c3nnc(N4CC5(CCC5)C4)o3)cc2N(Cc2ccc(Cl)cc2)C1=O [Example 474]	138	6.87		
5.37	N[C@H]1CS(=O)(=O)c2cc(F)c(-c3nnc(N4CCC5(CC4)CC(F)(F)CN5)o3)cc2N(Cc2ccc(Cl)cc2)C1=O [Example 475, (3R)-3-amino-5-[(4-chlorophenyl)methyl]-7-[5-(3,3-difluoro-1,8-diazaspiro[4.5]decan-8-yl)-1,3,4-oxadiazol-2-yl]-8-fluoro-1,1-dioxo-2,3-dihydro-1λ^6,5-benzothiazepin-4-one; hydrochloride]	85	6.03		
5.06	N[C@H]1CS(=O)(=O)c2cc(F)c(-c3nnc(N4CC5COCC(C4)C5(F)F)o3)cc2N(Cc2ccc(Cl)cc2)C1=O [Example 476, (3R)-3-amino-5-[(4-chlorophenyl)methyl]-7-[5-(9,9-difluoro-3-oxa-7-azabicyclo[3.3.1]nonan-7-yl)-1,3,4-oxadiazol-2-yl]-8-fluoro-1,1-dioxo-2,3-dihydro-1λ^6,5-benzothiazepin-4-one]	95	6.34		
5.57	NC1CN(c2nnc(-c3cc4c(cc3F)S(=O)(=O)C[C@H](N)C(=O)N4Cc3ccc(Cl)cc3)o2)CC(F)(F)C1 (stereo partly drawn) [Example 477, (3R)-3-amino-7-[5-(5-amino-3,3-difluoro-1-piperidyl)-1,3,4-oxadiazol-2-yl]-5-[(4-chlorophenyl)methyl]-8-fluoro-1,1-dioxo-2,3-dihydro-1λ^6.5-benzothiazepin-4-one]	77	5.46		
6.08	N[C@H]1CS(=O)(=O)c2cc(F)c(-c3nnc(N4CCC5(CC4)COC5)o3)cc2N(Cc2ccc(Cl)cc2)C1=O [Example 478, (3R)-3-amino-5-[(4-chlorophenyl)methyl]-8-fluoro-7-[5-(2-oxa-7-azaspiro[3.5]nonan-7-yl)-1,3,4-oxadiazol-2-yl]-1,1-dioxo-2,3-dihydro-1λ^6,5-benzothiazepin-4-one]	87	5.88		
6.96	N[C@H]1CS(=O)(=O)c2cc(F)c(-c3nnc(N4CC5(C4)CC(F)(F)C5)o3)cc2N(Cc2ccc(Cl)cc2)C1=O [Example 479, (3R)-3-amino-5-[(4-chlorophenyl)methyl]-7-[5-(6,6-difluoro-2-azaspiro[3.3]heptan-2-yl)-1,3,4-oxadiazol-2-yl]-8-fluoro-1,1-dioxo-2,3-dihydro-1λ^6,5-benzothiazepin-4-one]	127	6.36		
> 7.82	N[C@H]1CS(=O)(=O)c2cc(F)c(-c3nnc(N4CCC(F)(F)CC4)o3)cc2N(Cc2ccc(Cl)cc2)C1=O [Example 480, (3R)-3-amino-5-[(4-chlorophenyl)methyl]-7-[5-(4,4-difluoro-1-piperidyl)-1,3,4-oxadiazol-2-yl]-8-fluoro-1,1-dioxo-2,3-dihydro-1λ^6,5-benzothiazepin-4-one]	152	6.79		
